Assay results as given in ChEMBL document CHEMBL1201862, “PubChem BioAssay data set” (2004).
The source made the active and inactive calls.

Assays:
[1] = molecular target: DNA damage-inducible transcript 3 protein (Mus musculus, UniProt P35639); format: functional, Cricetulus griseus
X-box-binding protein 1 = X-box-binding protein 1 (Homo sapiens, UniProt P17861); format: functional, Cricetulus griseus;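 note: confirmatory dose-response counter-screen serving a CHOP assay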
[2] = molecular target: Transitional endoplasmic reticulum ATPase (Homo sapiens, UniProt P55072, C522A); test: C522A mutant p97 ATPase inhibitors, dose response, counter-screen for p97 inhibitor project, biochemical, luminescence (AID 1544)
[3] = molecular target: Transitional endoplasmic reticulum ATPase (Homo sapiens, UniProt P55072); test: p97 ATPase inhibitors, dose response, biochemical (AID 1534)
[4] = Luminescence Cell-Based Dose Retest to Confirm Inhibitors of Cancer Stem Cells. [Related pubchem assays (depositor defined):AID2717, AID2721]; format: functional; settings: Homo sapiens
Vero [5] = test: cells; format: functional, cell-based; settings: Chlorocebus sabaeus
[6] = inhibitors of intracellular T. cruzi replication, confirmation, NIH3T3 host cells, beta-gal luminescence (AID 2044); format: functional, cell-based;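 note: intracellular parasites grown in NIH/3T3 mouse fibroblasts as host cells; luminescent beta-galactosidase reporter signal from transgenic T. cruzi replicating inside host cells; inhibitors lower the luminescence signal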
Vero [7] = test: cells; format: functional; settings: Chlorocebus sabaeus
[8] = cytotoxicity toward NIH3T3 fibroblasts, dose response, counter-screen, cell-based, ATP luminescence, mouse fibroblasts (AID 2010); format: functional;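 note: cells exposed to compound for about 90 hours before reading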
Ion channel NompC = Ion channel NompC (Danio rerio, UniProt Q7T1G6); test: Dose response cell-based high-throughput screening assay for agonists of the transient receptor potential channel N1 (TRPN1). [Related pubchem assays (depositor defined):AID1424, AID1448]; format: functional
[9] = molecular target: Luciferin 4-monooxygenase (Photinus pyralis, UniProt P08659); test: firefly luciferase enzyme inhibitors, dose response, biochemical, luminescence (AID 1891)
[10] = molecular target: T1, Short transient receptor potential channel 4 (Mus musculus, UniProt Q9QUQ5); test: mouse TRPC4 channel activators, dose response, cell-based, HEK293 TRPC4/mu-opioid, Fluo-4 calcium (AID 434937); format: functional
T1 sequence (Q9QUQ5 whole entry): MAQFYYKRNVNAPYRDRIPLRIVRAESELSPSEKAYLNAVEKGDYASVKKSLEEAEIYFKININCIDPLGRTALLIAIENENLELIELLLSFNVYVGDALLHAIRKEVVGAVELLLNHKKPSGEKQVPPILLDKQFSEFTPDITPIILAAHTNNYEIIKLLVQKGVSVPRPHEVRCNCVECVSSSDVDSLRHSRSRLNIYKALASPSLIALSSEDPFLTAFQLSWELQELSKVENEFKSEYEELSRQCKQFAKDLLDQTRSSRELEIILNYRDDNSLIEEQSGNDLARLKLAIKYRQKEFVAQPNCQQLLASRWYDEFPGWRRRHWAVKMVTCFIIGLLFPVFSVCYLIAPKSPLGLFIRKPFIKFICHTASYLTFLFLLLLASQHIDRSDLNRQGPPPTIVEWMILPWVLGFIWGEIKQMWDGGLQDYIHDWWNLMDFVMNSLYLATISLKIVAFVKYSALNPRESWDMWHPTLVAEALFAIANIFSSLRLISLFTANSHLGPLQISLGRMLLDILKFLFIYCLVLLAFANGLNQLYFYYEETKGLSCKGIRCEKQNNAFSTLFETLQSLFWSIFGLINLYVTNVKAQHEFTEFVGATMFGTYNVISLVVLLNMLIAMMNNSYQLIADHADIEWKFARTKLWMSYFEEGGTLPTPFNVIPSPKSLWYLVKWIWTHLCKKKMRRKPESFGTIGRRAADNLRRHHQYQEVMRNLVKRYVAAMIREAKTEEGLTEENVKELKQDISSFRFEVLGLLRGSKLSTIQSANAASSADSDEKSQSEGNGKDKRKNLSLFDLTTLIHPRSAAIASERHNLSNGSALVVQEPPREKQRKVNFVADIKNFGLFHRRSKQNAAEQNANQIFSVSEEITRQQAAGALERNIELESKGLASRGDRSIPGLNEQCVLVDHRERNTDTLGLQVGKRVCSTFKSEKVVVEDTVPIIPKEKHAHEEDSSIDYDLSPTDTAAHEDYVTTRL

[11] = Luminescence Cell-Based Dose Confirmation HTS to Identify Inhibitors of Platelet Dense Granule Release. [Related pubchem assays: 1663 (Primary HTS), 1678 (Summary of Project)]; format: functional
Mucolipin-3 = Mucolipin-3 (Homo sapiens, UniProt Q8TDD5); test: Fluorescence counterscreen assay for […] agonists: dose response cell-based high-throughput screening assay to identify agonists of the transient receptor potential channel ML3 (TRPML3). [Related pubchem assays: 1424, 1448 ]; format: functional
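Throughout, for AC50: cells exposed to compound for roughly 70 hours or longer before luminescence read.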

Sequence of X-box-binding protein 1 (P17861 whole entry): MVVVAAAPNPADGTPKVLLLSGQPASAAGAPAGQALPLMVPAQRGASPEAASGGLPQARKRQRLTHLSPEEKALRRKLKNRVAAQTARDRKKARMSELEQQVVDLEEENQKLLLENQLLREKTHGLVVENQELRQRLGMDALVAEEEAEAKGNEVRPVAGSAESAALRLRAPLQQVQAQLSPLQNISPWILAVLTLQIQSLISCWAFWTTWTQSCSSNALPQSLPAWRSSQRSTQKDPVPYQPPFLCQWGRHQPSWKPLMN
Sequence of Mucolipin-3 (Q8TDD5 whole entry): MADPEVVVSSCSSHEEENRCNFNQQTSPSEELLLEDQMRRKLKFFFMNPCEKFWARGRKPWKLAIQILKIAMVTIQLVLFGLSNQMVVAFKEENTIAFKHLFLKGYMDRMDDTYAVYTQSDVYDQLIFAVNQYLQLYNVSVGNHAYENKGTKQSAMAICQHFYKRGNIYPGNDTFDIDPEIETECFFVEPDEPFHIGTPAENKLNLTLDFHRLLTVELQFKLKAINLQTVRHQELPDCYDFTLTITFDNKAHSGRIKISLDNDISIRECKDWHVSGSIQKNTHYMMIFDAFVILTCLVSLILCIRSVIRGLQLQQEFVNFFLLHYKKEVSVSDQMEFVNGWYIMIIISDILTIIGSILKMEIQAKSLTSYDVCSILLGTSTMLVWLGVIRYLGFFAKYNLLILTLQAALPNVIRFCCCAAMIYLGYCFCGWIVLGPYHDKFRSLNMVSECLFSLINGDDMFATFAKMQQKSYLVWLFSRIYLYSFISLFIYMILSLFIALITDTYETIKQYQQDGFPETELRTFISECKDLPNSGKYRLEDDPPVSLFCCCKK
Sequence of Luciferin 4-monooxygenase (P08659 whole entry): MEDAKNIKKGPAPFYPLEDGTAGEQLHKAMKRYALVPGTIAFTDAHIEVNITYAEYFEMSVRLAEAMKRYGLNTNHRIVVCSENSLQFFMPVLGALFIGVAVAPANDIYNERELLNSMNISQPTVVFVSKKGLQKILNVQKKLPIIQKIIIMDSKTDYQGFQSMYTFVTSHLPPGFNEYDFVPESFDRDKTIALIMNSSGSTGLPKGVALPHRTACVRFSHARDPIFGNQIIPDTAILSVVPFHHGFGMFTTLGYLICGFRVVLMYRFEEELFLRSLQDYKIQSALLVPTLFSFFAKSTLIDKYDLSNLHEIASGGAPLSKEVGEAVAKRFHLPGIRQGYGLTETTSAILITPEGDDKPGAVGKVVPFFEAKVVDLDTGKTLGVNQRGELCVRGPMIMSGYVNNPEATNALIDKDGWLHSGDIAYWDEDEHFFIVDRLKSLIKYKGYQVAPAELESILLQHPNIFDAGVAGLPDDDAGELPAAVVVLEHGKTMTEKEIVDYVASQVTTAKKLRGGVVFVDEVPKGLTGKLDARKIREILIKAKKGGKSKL
Sequence of Transitional endoplasmic reticulum ATPase (Homo sapiens, UniProt P55072) (P55072 whole entry): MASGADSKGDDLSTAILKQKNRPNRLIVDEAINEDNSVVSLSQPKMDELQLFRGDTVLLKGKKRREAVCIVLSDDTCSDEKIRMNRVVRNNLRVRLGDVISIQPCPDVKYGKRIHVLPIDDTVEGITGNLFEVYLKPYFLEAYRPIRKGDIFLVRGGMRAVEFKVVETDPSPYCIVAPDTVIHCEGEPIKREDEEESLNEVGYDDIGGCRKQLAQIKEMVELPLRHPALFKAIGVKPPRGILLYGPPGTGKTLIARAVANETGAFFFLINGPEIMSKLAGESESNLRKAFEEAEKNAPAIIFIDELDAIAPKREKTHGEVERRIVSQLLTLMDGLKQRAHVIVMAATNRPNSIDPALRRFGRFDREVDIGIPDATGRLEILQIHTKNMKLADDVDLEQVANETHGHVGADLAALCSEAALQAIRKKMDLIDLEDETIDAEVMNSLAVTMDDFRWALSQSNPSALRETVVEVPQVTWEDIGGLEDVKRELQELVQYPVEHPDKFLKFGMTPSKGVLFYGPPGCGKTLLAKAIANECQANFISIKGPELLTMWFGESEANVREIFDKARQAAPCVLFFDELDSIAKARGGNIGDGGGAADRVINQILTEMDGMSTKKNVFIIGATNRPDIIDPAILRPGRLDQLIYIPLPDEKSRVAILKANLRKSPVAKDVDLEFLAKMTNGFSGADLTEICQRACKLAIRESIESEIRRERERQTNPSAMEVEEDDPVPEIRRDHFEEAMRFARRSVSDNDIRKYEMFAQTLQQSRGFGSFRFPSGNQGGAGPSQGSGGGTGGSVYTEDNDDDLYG
Sequence of DNA damage-inducible transcript 3 protein (P35639 whole entry): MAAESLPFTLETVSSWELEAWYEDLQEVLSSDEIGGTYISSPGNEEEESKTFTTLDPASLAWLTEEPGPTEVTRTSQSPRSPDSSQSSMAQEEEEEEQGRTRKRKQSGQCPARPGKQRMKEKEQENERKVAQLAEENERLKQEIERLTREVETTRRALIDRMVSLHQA
Sequence of Ion channel NompC (Q7T1G6 whole entry): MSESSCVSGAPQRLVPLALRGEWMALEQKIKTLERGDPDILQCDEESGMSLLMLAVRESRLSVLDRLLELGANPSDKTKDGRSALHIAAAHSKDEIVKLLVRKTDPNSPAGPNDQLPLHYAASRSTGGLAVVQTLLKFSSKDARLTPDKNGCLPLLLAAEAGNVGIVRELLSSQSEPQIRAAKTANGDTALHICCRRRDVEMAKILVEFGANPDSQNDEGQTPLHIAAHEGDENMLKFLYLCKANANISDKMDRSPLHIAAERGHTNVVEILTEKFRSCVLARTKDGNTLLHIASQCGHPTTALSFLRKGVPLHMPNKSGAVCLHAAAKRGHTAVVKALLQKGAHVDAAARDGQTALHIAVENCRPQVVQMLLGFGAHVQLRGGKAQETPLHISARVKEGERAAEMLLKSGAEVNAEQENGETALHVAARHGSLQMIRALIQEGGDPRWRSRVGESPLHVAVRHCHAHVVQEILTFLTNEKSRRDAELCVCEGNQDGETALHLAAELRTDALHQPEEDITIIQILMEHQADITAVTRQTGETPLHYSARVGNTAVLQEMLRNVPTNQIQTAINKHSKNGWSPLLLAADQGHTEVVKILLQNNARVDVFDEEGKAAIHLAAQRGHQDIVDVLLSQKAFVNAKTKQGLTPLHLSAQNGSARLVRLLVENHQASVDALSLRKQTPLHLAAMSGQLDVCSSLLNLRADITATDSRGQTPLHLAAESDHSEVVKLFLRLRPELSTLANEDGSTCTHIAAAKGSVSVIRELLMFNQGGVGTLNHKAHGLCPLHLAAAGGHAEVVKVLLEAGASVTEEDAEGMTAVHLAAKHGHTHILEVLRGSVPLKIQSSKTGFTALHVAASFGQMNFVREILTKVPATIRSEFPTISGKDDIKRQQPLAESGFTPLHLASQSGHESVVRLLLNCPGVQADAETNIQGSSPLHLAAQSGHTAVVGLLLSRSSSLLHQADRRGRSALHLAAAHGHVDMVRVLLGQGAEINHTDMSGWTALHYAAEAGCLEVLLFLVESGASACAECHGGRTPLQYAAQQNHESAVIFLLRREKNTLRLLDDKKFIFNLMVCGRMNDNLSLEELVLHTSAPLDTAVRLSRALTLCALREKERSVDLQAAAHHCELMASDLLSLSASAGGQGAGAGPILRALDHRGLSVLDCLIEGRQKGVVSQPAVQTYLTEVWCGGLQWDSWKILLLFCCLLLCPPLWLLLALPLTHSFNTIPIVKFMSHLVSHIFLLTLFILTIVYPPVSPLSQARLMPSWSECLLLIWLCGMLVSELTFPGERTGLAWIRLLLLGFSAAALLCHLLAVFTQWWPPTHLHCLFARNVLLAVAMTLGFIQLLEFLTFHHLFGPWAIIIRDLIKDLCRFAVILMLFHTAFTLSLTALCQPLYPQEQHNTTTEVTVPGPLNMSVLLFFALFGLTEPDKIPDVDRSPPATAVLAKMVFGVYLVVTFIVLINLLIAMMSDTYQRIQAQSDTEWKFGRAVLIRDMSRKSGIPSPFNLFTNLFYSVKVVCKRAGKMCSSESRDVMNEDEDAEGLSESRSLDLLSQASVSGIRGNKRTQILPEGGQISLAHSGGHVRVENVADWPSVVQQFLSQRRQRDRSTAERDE
Sequence of Transitional endoplasmic reticulum ATPase (Homo sapiens, UniProt P55072, C522A) (P55072 2-806 C522A limits assumed): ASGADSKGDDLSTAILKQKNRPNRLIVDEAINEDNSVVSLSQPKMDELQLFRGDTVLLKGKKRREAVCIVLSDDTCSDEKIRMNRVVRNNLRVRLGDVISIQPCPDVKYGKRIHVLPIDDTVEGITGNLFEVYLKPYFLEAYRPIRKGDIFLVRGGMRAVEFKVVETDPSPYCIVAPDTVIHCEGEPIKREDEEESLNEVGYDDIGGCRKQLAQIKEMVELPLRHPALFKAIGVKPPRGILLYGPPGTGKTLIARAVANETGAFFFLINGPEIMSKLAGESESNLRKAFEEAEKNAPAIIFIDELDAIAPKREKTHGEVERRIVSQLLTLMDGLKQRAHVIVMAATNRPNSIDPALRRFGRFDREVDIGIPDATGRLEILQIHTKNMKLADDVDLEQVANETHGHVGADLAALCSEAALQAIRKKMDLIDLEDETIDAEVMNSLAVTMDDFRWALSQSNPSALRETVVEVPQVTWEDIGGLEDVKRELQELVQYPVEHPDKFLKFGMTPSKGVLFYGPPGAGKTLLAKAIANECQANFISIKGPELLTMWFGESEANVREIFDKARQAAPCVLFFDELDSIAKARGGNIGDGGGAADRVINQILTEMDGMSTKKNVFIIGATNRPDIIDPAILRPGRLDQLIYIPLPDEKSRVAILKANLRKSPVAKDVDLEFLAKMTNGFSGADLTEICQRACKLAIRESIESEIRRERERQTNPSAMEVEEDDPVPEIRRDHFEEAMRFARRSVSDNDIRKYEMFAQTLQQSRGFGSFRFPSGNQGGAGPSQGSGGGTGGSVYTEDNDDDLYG

| SMILES | Absolute IC50 (CHOP) [1] [µM] | Absolute IC50 (XBP1) (X-box-binding protein 1) [µM] | IC50 [2] | IC50 [3] | AC50 [4] | IC50 (Vero [5]) | EC50 [6] | CC50 (Vero [7]) | EC50 [8] | EC50 (Ion channel NompC) | EC50 [9] | EC50 [10] | EC50 [11] | EC50 (Mucolipin-3) |
| --- | --- | --- | --- | --- | --- | --- | --- | --- | --- | --- | --- | --- | --- | --- |
| Cc1cc(Nc2ccccc2)nc(-c2ccccc2O)n1 | 10 | < 10 | > 50 µM (not active) | > 50 µM (not active) | 5.64 µM (active) |  |  |  |  |  |  |  |  |  |
| CC(C)(C)c1ccc(C(=O)NC(=S)NNC(=O)c2cccs2)cc1 |  |  |  |  |  | > 12.5 µM (active) | 2.15 µM (active) | 17.4 µM (active) | 13.5 µM (active) | 0.168 µM (active) | > 112 µM (not active) | 1.5 µM (active) | 24.5 µM (active) | 0.292 µM (active) |
